We go through 13 molecules from patent US9670194B2 (Calitor Sciences, LLC, priority 2013, dated 2017).

Each structure is given as a SMILES string. Where two headings read alike, the source gives them in different places.

A short description of series [1]: Compound stability in human liver microsomes. The series is classed as in vitro ADME. Particulars: for half-life at 5 μM: human liver microsomes 0.5 mg protein/mL, compound 5 μM, NADPH 1.0 mM, 37° C.; for CLint scaled at 5 μM: human liver microsomes, in vivo CLint extrapolated.
Series [2] in a line: Compound stability in rat liver microsomes. Particulars: pH 7.4; for half-life at 5 μM: rat liver microsomes 0.5 mg protein/mL, compound 5 μM, NADPH 1.0 mM, 37° C.; for CLint scaled at 5 μM: rat liver microsomes, in vivo CLint extrapolated. It counts as in vitro ADME.
Series [3] can be described thus: Pharmacokinetics after intravenous and oral administration in rats. The series is classed as in vivo, rat. As to conditions: for clearance (CL) / AUC(0-t) / half-life / Vd: iv dosing; for bioavailability / AUC(0-t) / half-life / Vd: rat, plasma; for bioavailability: oral dose generally 5 or 10 mg/kg; for Vd: read-out: Vss.
For series [4], the target named is PI3K (p110δ/p85α) (h) (Homo sapiens (Human), UniProt O00329). Kind of series: PI3K (p110δ/p85α) (h) non-radioactive HTRF kinase assay. It counts as biochemical.
Chain of PI3K (p110δ/p85α) (h) (O00329 whole entry): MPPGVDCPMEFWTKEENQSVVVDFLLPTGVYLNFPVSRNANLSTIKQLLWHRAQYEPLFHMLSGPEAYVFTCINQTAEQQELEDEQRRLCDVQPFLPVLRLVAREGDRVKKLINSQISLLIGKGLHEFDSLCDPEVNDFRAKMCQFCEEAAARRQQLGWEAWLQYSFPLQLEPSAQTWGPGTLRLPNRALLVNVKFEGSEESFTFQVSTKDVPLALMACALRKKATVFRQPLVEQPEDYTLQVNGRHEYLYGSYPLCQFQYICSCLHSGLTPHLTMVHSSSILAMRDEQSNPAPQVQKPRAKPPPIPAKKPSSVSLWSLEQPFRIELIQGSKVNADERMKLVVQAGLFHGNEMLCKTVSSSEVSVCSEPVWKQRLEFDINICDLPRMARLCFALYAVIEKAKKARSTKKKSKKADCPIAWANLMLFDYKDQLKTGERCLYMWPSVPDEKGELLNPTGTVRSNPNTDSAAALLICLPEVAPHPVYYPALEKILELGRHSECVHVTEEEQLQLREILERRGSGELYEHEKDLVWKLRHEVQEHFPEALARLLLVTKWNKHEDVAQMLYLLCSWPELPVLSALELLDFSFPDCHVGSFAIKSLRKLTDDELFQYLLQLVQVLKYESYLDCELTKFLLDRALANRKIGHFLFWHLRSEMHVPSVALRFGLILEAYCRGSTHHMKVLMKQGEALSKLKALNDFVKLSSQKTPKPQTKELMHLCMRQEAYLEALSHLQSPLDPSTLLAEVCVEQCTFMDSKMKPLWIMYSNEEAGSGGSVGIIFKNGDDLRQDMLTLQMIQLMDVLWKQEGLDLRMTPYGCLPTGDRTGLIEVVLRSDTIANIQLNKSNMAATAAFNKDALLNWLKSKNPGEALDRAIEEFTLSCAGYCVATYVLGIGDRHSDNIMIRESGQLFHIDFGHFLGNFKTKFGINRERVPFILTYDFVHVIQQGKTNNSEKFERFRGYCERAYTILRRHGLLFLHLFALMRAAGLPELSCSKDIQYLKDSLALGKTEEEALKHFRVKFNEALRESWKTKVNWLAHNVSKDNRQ
Chain of PI3K (p110δ/p85α) (h) (P27986 whole entry partner): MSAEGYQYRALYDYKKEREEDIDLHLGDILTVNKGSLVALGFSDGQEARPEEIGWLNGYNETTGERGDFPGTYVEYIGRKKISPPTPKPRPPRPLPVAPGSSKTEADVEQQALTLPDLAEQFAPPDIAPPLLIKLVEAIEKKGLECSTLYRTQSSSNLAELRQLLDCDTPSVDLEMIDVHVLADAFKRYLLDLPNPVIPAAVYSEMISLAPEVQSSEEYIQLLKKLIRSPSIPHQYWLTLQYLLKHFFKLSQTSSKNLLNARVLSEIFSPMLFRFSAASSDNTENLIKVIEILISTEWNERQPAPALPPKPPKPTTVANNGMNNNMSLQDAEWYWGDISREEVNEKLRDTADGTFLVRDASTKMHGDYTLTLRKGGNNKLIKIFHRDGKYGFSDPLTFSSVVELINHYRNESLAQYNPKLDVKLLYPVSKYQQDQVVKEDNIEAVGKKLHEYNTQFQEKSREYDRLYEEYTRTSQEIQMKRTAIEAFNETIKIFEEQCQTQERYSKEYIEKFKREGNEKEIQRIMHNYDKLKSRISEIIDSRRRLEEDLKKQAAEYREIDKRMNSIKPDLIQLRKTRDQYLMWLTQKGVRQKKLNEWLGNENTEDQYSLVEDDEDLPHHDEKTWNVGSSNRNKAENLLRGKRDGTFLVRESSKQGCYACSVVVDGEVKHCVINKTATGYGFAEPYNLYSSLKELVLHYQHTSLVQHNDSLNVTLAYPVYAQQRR

Turning to `CC[C@H](Nc1ncnc(N)c1-c1nc(C)no1)c1nc2cccc(C)c2c(=O)n1-c1ccccc1` [Ex. 37, (S)-2-(1-((6-amino-5-(3-methyl-1,2,4-oxadiazol-5-yl)pyrimidin-4-yl)amino)-propyl)-5-methyl-3-phenylquinazolin-4(3H)-one], in series [1], the half-life (usually how long it takes for the measured level to halve) at 5 μM was determined as 5.3 min and the CLint scaled (as a rule, the capacity of the preparation to metabolise the compound, expressed as a volume cleared per time) at 5 μM was 328 mL/min/kg. Besides, in series [2], the half-life at 5 μM is 7.2 min and the CLint scaled at 5 μM was 345 mL/min/kg. In series [3] (dose 1 mg/kg), the “clearance (CL)” value was 67.5 mL/min/kg; the AUC(0-t) (as a rule, the area under the concentration-time curve up to a stated or last time point) is 246 ng·h/mL; the half-life was 80.4 min; the Vd is 4.9 L/kg. Moreover, in series [3] (iv dose 1 mg/kg), the bioavailability was 24.6%. Moreover, the IC50 (usually the concentration that gives 50% inhibition) in series [4] was 6 nM.

For the molecule `CC[C@H](Nc1ncnc(N)c1-c1nnc(C)o1)c1nc2cccc(F)c2c(=O)n1C1CC1` [Ex. 25, (S)-2-(1-((6-amino-5-(5-methyl-1,3,4-oxadiazol-2-yl)pyrimidin-4-yl)amino)-propyl)-3-cyclopropyl-5-fluoroquinazolin-4(3H)-one], in series [1], the half-life at 5 μM came out at 150 min and the CLint scaled at 5 μM is 16.6 mL/min/kg. In addition, in series [2], the half-life at 5 μM came to 49.9 min and the CLint scaled at 5 μM is 49.8 mL/min/kg. In addition, in series [3] (dose 1 mg/kg), the “clearance (CL)” value was 75.7 mL/min/kg, the AUC(0-t) came out at 223 ng·h/mL, the half-life is 48.6 min and the Vd was 3.77 L/kg. Further, in series [3] (iv dose 1 mg/kg), the bioavailability was found to be 62.3%. Moreover, the IC50 in series [4] came to 298 nM.

In the case of `CC[C@H](Nc1ncnc(N)c1-c1ccon1)c1nc2cccc(Cl)c2c(=O)n1C1CC1` [Ex. 14, (S)-2-(1-((6-amino-5-(isoxazol-3-yl)pyrimidin-4-yl)amino)propyl)-5-chloro-3-cyclopropylquinazolin-4(3H)-one], in series [3] (dose 1 mg/kg), the “clearance (CL)” value stood at 46.7 mL/min/kg, the AUC(0-t) worked out at 362 ng·h/mL, the half-life is 45.6 min and the Vd amounted to 2.18 L/kg. Moreover, in series [3] (iv dose 1 mg/kg), the bioavailability worked out at 23.1%. The IC50 in series [4] came to 20 nM.

As for `CC[C@H](Nc1ncnc(N)c1-c1nnc(C)o1)c1nc2ccccc2c(=O)n1-c1ccccc1F` [Ex. 24, (S)-2-(1-((6-amino-5-(5-methyl-1,3,4-oxadiazol-2-yl)pyrimidin-4-yl)amino)-propyl)-3-(2-fluorophenyl)quinazolin-4(3H)-one], in series [1], the half-life at 5 μM came to 17.1 min and the CLint scaled at 5 μM was 146 mL/min/kg. In series [2], the half-life at 5 μM is 5.42 min and the CLint scaled at 5 μM was 458 mL/min/kg. Besides, in series [3] (dose 0.48 mg/kg), the “clearance (CL)” value was 70.5 mL/min/kg, the AUC(0-t) was 121 ng·h/mL, the half-life was 30.6 min and the Vd is 2.31 L/kg. For the same molecule, the bioavailability in series [3] (iv dose 0.48 mg/kg) is 69.1%.

As for `CC[C@H](Nc1ncnc(N)c1C1=N[C@@H](C)CO1)c1nc2cccc(Cl)c2c(=O)n1C1CC1` [Ex. 5, 2-((S)-1-((6-amino-5-((S)-4-methyl-4,5-dihydrooxazol-2-yl)pyrimidin-4-yl)amino)propyl)-5-chloro-3-cyclopropylquinazolin-4(3H)-one], in series [1], the half-life at 5 μM stood at 5.52 min and the CLint scaled at 5 μM is 315 mL/min/kg. In series [2], the half-life at 5 μM turned out to be 5.98 min and the CLint scaled at 5 μM was 416 mL/min/kg. In addition, in series [3] (dose 1 mg/kg), the “clearance (CL)” value is 59.5 mL/min/kg, the AUC(0-t) was found to be 276 ng·h/mL, the half-life was 91.2 min and the Vd came to 11.9 L/kg. Further, the bioavailability in series [3] (iv dose 1 mg/kg) was 30.4%.

For the molecule `CC[C@H](Nc1ncnc(N)c1-c1nnc(C)o1)c1nc2cccc(Cl)c2c(=O)n1-c1ccccc1C` [Ex. 35, (S)-2-(1-((6-amino-5-(5-methyl-1,3,4-oxadiazol-2-yl)pyrimidin-4-yl)-amino)propyl)-5-chloro-3-(o-tolyl)quinazolin-4(3H)-one], in series [1], the half-life at 5 μM was 37.9 min and the intrinsic clearance (CLint scaled) at 5 μM was 45.9 mL/min/kg. Besides, in series [2], the half-life at 5 μM is 8.87 min and the CLint scaled at 5 μM is 280 mL/min/kg. In series [3] (dose 0.5 mg/kg), the “clearance (CL)” value was 53 mL/min/kg, the AUC(0-t) was determined as 157 ng·h/mL, the half-life is 67.8 min and the Vd came to 3.46 L/kg. Further, in series [3] (iv dose 0.5 mg/kg), the bioavailability was 41.8%.

Take `CC[C@H](Nc1ncnc(N)c1-c1ncn(C)n1)c1nc2cccc(C)c2c(=O)n1-c1ccccc1C` [Ex. 30, (S)-2-(1-((6-amino-5-(1-methyl-1H-1,2,4-triazol-3-yl)pyrimidin-4-yl)amino)-propyl)-5-methyl-3-(o-tolyl)quinazolin-4(3H)-one]: in series [1], the half-life at 5 μM came to 17.8 min and the CLint scaled at 5 μM was 140 mL/min/kg. For the same molecule, in series [2], the half-life at 5 μM worked out at 8.46 min and the CLint scaled at 5 μM was 294 mL/min/kg. Also, in series [3] (dose 1 mg/kg), the “clearance (CL)” value turned out to be 70.5 mL/min/kg, the AUC(0-t) is 238 ng·h/mL, the half-life is 51.6 min and the Vd was 3.84 L/kg. For the same molecule, the bioavailability in series [3] (iv dose 1 mg/kg) is 22.4%.

Regarding `CC[C@H](Nc1ncnc(N)c1-c1nc(C)co1)c1nc2cccc(Cl)c2c(=O)n1C1CC1` [Ex. 52, (S)-2-(1-((6-amino-5-(4-methyloxazol-2-yl)pyrimidin-4-yl)amino)propyl)-5-chloro-3-cyclopropylquinazolin-4(3H)-one], in series [1], the half-life at 5 μM is 7.72 min and the CLint scaled at 5 μM is 322 mL/min/kg. Further, in series [2], the half-life at 5 μM turned out to be 6.71 min and the CLint scaled at 5 μM is 370 mL/min/kg. For the same molecule, in series [3] (dose 1 mg/kg), the “clearance (CL)” value was 85.7 mL/min/kg, the AUC(0-t) is 194 ng·h/mL, the half-life was 73.2 min and the Vd stood at 6.07 L/kg. Moreover, the bioavailability in series [3] (iv dose 1 mg/kg) worked out at 21.3%.

Consider `CC[C@H](Nc1ncnc(N)c1-c1noc(C)n1)c1nc2cccc(Cl)c2c(=O)n1-c1ccccc1` [Ex. 13, (S)-2-(1-((6-amino-5-(5-methyl-1,2,4-oxadiazol-3-yl)pyrimidin-4-yl)amino)-propyl)-5-chloro-3-phenylquinazolin-4(3H)-one], for which, in series [1], the half-life at 5 μM is 44.7 min and the CLint scaled at 5 μM was 38.9 mL/min/kg. For the same molecule, in series [2], the half-life at 5 μM turned out to be 6.55 min and the CLint scaled at 5 μM was 379 mL/min/kg. Besides, in series [3] (dose 1 mg/kg), the “clearance (CL)” value stood at 72.5 mL/min/kg, the AUC(0-t) stood at 232 ng·h/mL, the half-life was 68.4 min and the Vd turned out to be 6.92 L/kg. For the same molecule, the bioavailability in series [3] (iv dose 1 mg/kg) turned out to be 11.4%.

As to `CC[C@H](Nc1ncnc(N)c1-c1nc(C)co1)c1nc2cccc(C)c2c(=O)n1-c1ccccc1C` [Ex. 29, (S)-2-(1-((6-amino-5-(4-methyloxazol-2-yl)pyrimidin-4-yl)amino)propyl)-5-methyl-3-(o-tolyl)quinazolin-4(3H)-one], in series [1], the half-life at 5 μM worked out at 1.92 min and the CLint scaled at 5 μM was 1290 mL/min/kg. Besides, in series [2], the half-life at 5 μM is 1.92 min and the CLint scaled at 5 μM is 1300 mL/min/kg. Further, in series [3] (dose 1 mg/kg), the “clearance (CL)” value turned out to be 130 mL/min/kg, the AUC(0-t) worked out at 247 ng·h/mL, the half-life was 122 min and the Vd is 13.2 L/kg. Besides, the bioavailability in series [3] (iv dose 1 mg/kg) is 4.56%.

For the molecule `CC[C@H](Nc1ncnc(N)c1-c1nc(C(N)=O)n(C)n1)c1nc2cccc(Cl)c2c(=O)n1C1CC1` [Ex. 58, (S)-3-(4-amino-6-((1-(5-chloro-3-cyclopropyl-4-oxo-3,4-dihydroquinazolin-2-yl)propyl)amino)pyrimidin-5-yl)-1-methyl-1H-1,2,4-triazole-5-carboxamide], in series [1], the half-life at 5 μM turned out to be 61.8 min and the CLint scaled at 5 μM is 28.1 mL/min/kg. Further, in series [2], the half-life at 5 μM came out at 122 min and the CLint scaled at 5 μM is 20.4 mL/min/kg. For the same molecule, in series [3] (dose 1 mg/kg), the “clearance (CL)” value is 26.2 mL/min/kg, the AUC(0-t) worked out at 580 ng·h/mL, the half-life is 143 min and the Vd came out at 5.03 L/kg. In addition, in series [3] (iv dose 1 mg/kg), the bioavailability was 106%.

As to `CC[C@H](Nc1ncnc(N)c1-c1ncc(C)o1)c1nc2cccc(C)c2c(=O)n1-c1ccccc1C` [Ex. 28, (S)-2-(1-((6-amino-5-(5-methyloxazol-2-yl)pyrimidin-4-yl)amino)propyl)-5-methyl-3-(o-tolyl)quinazolin-4(3H)-one], in series [1], the half-life at 5 μM is 8.69 min and the CLint scaled at 5 μM is 286 mL/min/kg. In addition, in series [2], the half-life at 5 μM came out at 5.12 min and the CLint scaled at 5 μM is 485 mL/min/kg. In series [3] (dose 1 mg/kg), the “clearance (CL)” value came out at 61.2 mL/min/kg, the AUC(0-t) came to 265 ng·h/mL, the half-life was 265 min and the Vd was determined as 8.92 L/kg. Besides, the bioavailability in series [3] (iv dose 1 mg/kg) is 7.67%.

Turning to `CC[C@H](Nc1ncnc(N)c1-c1nc(COC)n(C)n1)c1nc2cccc(Cl)c2c(=O)n1C1CC1` [Ex. 46, (S)-2-(1-((6-amino-5-(5-(methoxymethyl)-1-methyl-1H-1,2,4-triazol-3-yl)pyrimidin-4-yl)amino)propyl)-5-chloro-3-cyclopropylquinazolin-4(3H)-one], in series [1], the half-life at 5 μM was 6.1 min and the CLint scaled at 5 μM was 285 mL/min/kg. In series [2], the half-life at 5 μM was 3.86 min and the CLint scaled at 5 μM is 644 mL/min/kg. Moreover, in series [3] (dose 1 mg/kg), the “clearance (CL)” value stood at 55.8 mL/min/kg, the AUC(0-t) came to 300 ng·h/mL, the half-life was 42.6 min and the Vd was determined as 3.65 L/kg. For the same molecule, the bioavailability in series [3] (iv dose 1 mg/kg) came to 20.2%.
